Laboratory results published in patent US20140315889A1, “HYDROXAMATE DERIVATIVES FOR HDAC INHIBITOR, AND THE PHARMACEUTICAL COMPOSITION COMPRISING THEREOF” (CHONG KUN DANG PHARMACEUTICAL CORP., priority 2011, published 2014).

Assays:
HDAC2 = HDAC2 (Homo sapiens, UniProt Q92769); assay: HDAC enzyme activity test, HDAC2; format: biochemical; conditions: Table 11, eleven HDAC isozymes; read-out: Inhibition ability (IC50) against HDAC2
Protocol: (§1) Then, 0.3 μg of enzyme and 10 μM of substrate per well were added, reacted at 30° C. for 60 minutes. Thereto, Fluor de Lys® Developer II (BML-KI176) was added and reacted for 30 minutes. […] From the data, the respective IC50 were calculated by GraphPad Prism 4.0 program.

HDAC3 = HDAC3 (Homo sapiens, UniProt O15379); assay: HDAC enzyme activity test, HDAC3; format: biochemical; conditions: Table 11, eleven HDAC isozymes; read-out: Inhibition ability (IC50) against HDAC3
Chain of HDAC3 (O15379 whole entry, species assumed): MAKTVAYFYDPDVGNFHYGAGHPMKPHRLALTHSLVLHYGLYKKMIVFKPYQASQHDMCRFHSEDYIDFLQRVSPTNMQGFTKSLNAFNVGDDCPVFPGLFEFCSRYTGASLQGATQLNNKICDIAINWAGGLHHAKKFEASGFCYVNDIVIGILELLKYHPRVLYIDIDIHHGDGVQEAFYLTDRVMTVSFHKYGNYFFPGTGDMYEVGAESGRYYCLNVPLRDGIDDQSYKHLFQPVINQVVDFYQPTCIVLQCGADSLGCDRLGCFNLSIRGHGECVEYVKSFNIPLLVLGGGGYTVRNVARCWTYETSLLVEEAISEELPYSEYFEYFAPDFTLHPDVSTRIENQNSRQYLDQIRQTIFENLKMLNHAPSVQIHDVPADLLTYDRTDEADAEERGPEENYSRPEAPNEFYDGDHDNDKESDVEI
Chain of HDAC3 (Q9Y618 395-489 partner limits assumed, species assumed): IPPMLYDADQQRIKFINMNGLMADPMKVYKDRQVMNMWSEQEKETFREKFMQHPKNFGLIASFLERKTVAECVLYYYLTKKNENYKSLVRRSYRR
Protocol: as §1

[1] = system: collagen-induced arthritis model; assay: Effectiveness of compound 87 in a collagen-induced arthritis model; format: in vivo, DBA1J mice; conditions: for clinical score decreased, compared with the positive control group: vs ITF2357 50 mg/kg group
Excerpt: 7-week aged male DBA1J mice were used in the experiment. The animal facility was kept at constant temperature and constant humidity with a 12-hr dark/12-hr light cycle, and the animals were allowed to access food and water ad libitum. The animals were acclimated to the cage for 7 days.
Each arthritis-onset animals were selected and then promptly used in the experiments. The experimental animal groups consist of: • A. two vehicle-control groups administered with only vehicle via s.c. (subcutaneous injection) and p.o. (per oral), • B. a positive control group administered with ITF2357 of 50 mg/kg, and • C. two compound test groups administered with compound 87 in each doses of 10 and 50 mg/kg.
A solution of ITF2357 for administration was prepared using 0.5% methylcellulose as a vehicle. It was administered orally to the animals in a volume of 10 ml/kg once a day for 7 days. A solution of compound 87 for administration was prepared using DMSO as a vehicle just before administration. It was administered in a volume of 2 ml/kg via s.c. once a day for 7 days. Two vehicle-control groups were administered with only vehicle once a day for 7 days via s.c. and p.o. separately.
Bovine type 2 collagen (Chondrex) and complete Freund's adjuvant (Chondrex) are mixed in 1:1 to become an emulsion. Each 0.1 ml of the obtained emulsion was injected to the tail of each mouse intradermally. After 21 days, Bovine type 2 collagen (Chondrex) and incomplete Freund's adjuvant (Chondrex) are mixed in 1:1 to become an emulsion. Each 0.1 ml of the obtained emulsion was injected to the hips of each mouse intradermally for boosting. After boosting, feet of the mice were observed once a day. When clinical score was occurred, the drug administration and its evaluation were started. The criterion of clinical score was according to Experimental Example 3.
All the results were expressed as mean±SEM, and each test group and the control groups (vehicle-control group or positive control group) were compared using one-way ANOVA test (Dunnett's test, p<0.001) with GrapicPad Prism 5.0 program.

[2] = system: collagen-induced arthritis model; assay: Effectiveness of compound 237 in a collagen-induced arthritis model; format: in vivo
Excerpt: 6-week aged male DBA1J mice were used in the experiment. The animal facility was kept at constant temperature and constant humidity with a 12-hr dark/12-hr light cycle, and the animals were allowed to access food and water ad libitum. The animals were acclimated to the cage for 7 days.
Each arthritis-onset animals were selected and then promptly used in the experiments. The experimental animal groups consist of • A. a vehicle-control group administered with only vehicle once a day via s.c. (subcutaneous injection), • B. a compound test group administered with compound 237 in dose of 15 mg/kg q.d. (once a day) via s.c., • C. a compound test group administered with compound 237 in dose of 15 mg/kg b.i.d. (twice a day) via s.c., and • D. a compound test group administered with compound 237 in dose of 30 mg/kg q.d. via s.c.
A solution of compound 237 for administration was prepared using Cremophore EL:Ethanol:Saline=1.5:1.5:7 as a vehicle just before administration. It was administered in a volume of 5 ml/kg via s.c. with each doses of 15 and 30 mg/kg once or twice a day.
Bovine type 2 collagen (Chondrex) and complete Freund's adjuvant (Chondrex) are mixed in 1:1 to become an emulsion. Each 0.1 ml of the obtained emulsion was injected to the tail of each mouse intradermally for immunization. After 21 days, Bovine type 2 collagen (Chondrex) and incomplete Freund's adjuvant (Chondrex) are mixed in 1:1 to become an emulsion. Each 0.1 ml of the obtained emulsion was injected to the hips of each mouse intradermally for boosting. After boosting, the mice were divided in each groups, and administered with compound 237 or only vehicle according to the administration schedule. Their body weights and clinical scores were evaluated three times per week.
From each four feet of a mouse, the clinical scores were evaluated according to the following criterion and added together thereby to determine the clinical score of the mouse (normal, 0; and the most severe edema, 16).
All the results were expressed as mean±SEM, and the experimented groups were compared with each other using one-way ANOVA test (Dunnett's test, p<0.001).

Chain of HDAC2 (Q92769 whole entry, species assumed): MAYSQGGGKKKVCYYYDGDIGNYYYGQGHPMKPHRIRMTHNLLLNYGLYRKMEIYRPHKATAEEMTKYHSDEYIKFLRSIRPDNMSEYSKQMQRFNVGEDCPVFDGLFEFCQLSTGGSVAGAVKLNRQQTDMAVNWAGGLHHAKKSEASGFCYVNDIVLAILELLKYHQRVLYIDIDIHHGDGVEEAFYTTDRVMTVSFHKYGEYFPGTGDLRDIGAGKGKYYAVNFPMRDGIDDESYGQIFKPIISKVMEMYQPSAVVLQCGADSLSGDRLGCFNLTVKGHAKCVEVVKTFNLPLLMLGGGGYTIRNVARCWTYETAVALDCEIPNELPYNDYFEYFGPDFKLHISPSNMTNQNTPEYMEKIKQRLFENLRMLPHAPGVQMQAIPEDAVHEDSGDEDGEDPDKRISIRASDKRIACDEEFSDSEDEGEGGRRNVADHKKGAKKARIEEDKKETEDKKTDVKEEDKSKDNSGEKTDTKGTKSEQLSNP

CN1CCN(C(=O)N(CCCCCCC(=O)NO)c2ccc(-c3ccc4cnn(C)c4c3)cc2)CC1 [CKD-581, reference compound]
IC50 (HDAC2): 1.58 nM | IC50 (HDAC3): 0.693 nM

O=C(NO)c1ccc(Cn2c3c(c4ccccc42)C(=O)C(CN2CCOCC2)CC3)cc1 (stereo not drawn) [Compound 87, N-hydroxy-4-((3-(morpholinomethyl)-4-oxo-1,2,3,4-tetrahydrocarbazol-9-yl)methyl)benzamide]
clinical score decreased, compared with the positive control group ([1]; 10 mg/kg s.c. once a day for 7 days): 44% | clinical score decreased, compared with the positive control group ([1]; 50 mpk s.c. once a day for 7 days): 68% | body-weight loss ([1]; collagen-induced arthritis mice, 10 and 50 mg/kg s.c.): no observation of body-weight loss

CC1(C)CC(=O)c2c(C(F)(F)F)nn(Cc3ccc(C(=O)NO)cc3)c2C1 [Compound 237, 4-((6,6-dimethyl-4-oxo-3-(trifluoromethyl)-4,5,6,7-tetrahydro-1H-indazol-1-yl)methyl)-N-hydroxybenzamide]
clinical score decreased, compared with the control group (only vehicle) ([2]; 15 mpk b.i.d. s.c.): 53% | clinical score decreased, compared with the control group (only vehicle) ([2]; 15 mpk q.d. s.c.): 7% | clinical score decreased, compared with the control group (only vehicle) ([2]; 30 mpk q.d. s.c.): 65% | body-weight loss or toxic side effect ([2]; during the administration of drug, 15 and 30 mg/kg s.c.): body-weight loss or toxic side effect was not observed
